Measured values as given in patent publication US8546352B2, “Pharmacological preparation for topical use containing N-palmitoyl-vanillamide” (Epitech Group S.r.l., priority 2010, dated 2013).

Legend:
[1] = system: capsaicin-induced eye-wiping movements in mice; assay: Eye-wiping assay in mice, effect on capsaicin-induced wiping; assay type: in vivo, mouse; conditions: for Capsaicin-induced wiping movements after Palvanil: same eye
[2] = system: eye-wiping movements in mice; conditions: mouse
[3] = biological target: T1, recombinant human TRPV1 (HEK-293 cells) (Homo sapiens, UniProt Q8NER1); assay: TRPV1-mediated elevation of intracellular [Ca2+] (agonist activity); assay type: cell-based
T1 construct: expressed in transfected cells
T1 sequence (Q8NER1 whole entry): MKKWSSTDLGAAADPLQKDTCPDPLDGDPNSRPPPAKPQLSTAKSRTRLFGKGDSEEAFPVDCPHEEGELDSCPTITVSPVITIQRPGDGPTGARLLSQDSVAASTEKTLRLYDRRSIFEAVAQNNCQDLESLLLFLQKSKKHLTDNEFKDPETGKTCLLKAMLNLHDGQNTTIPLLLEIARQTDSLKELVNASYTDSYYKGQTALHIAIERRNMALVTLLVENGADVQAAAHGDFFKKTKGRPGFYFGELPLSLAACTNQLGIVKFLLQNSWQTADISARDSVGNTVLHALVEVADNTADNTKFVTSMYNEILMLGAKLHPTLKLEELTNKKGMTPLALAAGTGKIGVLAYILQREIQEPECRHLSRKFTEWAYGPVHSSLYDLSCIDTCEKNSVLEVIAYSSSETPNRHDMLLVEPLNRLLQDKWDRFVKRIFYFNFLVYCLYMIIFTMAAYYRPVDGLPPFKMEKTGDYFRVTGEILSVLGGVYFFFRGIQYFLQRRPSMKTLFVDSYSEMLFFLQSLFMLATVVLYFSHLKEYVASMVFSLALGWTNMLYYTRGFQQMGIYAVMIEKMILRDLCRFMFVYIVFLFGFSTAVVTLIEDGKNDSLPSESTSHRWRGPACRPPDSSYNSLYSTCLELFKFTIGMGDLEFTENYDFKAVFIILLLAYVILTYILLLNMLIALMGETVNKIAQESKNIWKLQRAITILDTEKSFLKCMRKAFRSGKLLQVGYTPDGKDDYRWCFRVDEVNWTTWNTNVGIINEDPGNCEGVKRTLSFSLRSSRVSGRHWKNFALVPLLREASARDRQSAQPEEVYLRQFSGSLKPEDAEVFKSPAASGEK

[4] = biological target: T1, recombinant human TRPV1 (HEK-293 cells); assay: Desensitization of capsaicin (10 nM)-induced TRPV1-mediated elevation of intracellular [Ca2+]; assay type: cell-based
[5] = biological target: T1, recombinant human TRPV1 (HEK-293 cells); assay: Desensitization of anandamide/low pH-induced TRPV1-mediated elevation of intracellular [Ca2+]; assay type: cell-based; conditions: for IC50: read-out: IC50, desensitization of anandamide effect

C=C(C)[C@]12C[C@@H](C)[C@@]34O[C@](Cc5ccccc5)(O[C@@H]1[C@@H]3C=C(COC(=O)Cc1cc(I)c(O)c(OC)c1)C[C@]1(O)C(=O)C(C)=C[C@@H]41)O2 [I-RTX, 5′-iodo-resiniferatoxin, reference compound]
Effect of I-RTX pre-treatment on Palvanil's reduction of capsaicin-induced wiping ([1]; mouse, in vivo): completely reverted
Eye-wiping reflexes per se ([2]; in vivo): did not cause any reflexes per se

CCCCCCCCCCCCCCCC(=O)NCc1ccc(O)c(OC)c1 [Palvanil, N-(4-hydroxy-3-methoxybenzyl)palmitoylamide]
EC50 ([3]; HEK-293-TRPV1 cells, Fluo-4, read-out: EC50, increase in intracellular calcium): 650 ± 40 pM
Pre-incubation time at which desensitizing effect reached a maximum ([4]; 2 nM Palvanil, 10 nM capsaicin stimulation): ~50 min
IC50 ([4]; read-out: IC50, desensitization of TRPV1 to the effect of capsaicin, 10 nM capsaicin, compound given 5 min before): 810 ± 70 pM
Inhibitory effect on anandamide response ([5]; 1 nM compound, 0.5 μM AEA, at both pH values): > 50%
IC50 ([5]; 0.5 μM AEA, acid pH (6.5)): 300 ± 10 pM
Fold more potent at the lower pH ([5]; 0.5 μM AEA, pH 6.5 vs pH 7.4): 90 fold
IC50 ([5]; 0.5 μM AEA, physiological pH (7.4)): 900 ± 100 pM
IC50 ([5]; anandamide 0.25 mM (so in the source), acid pH): 500 ± 20 pM
Capsaicin-induced wiping movements after Palvanil ([1]; Palvanil 10 μg/ml, 1 hour before capsaicin 10 μg/ml): 8.2±0.9 wiping movements
Capsaicin-induced wiping movements after Palvanil ([1]; Palvanil 10 μg/ml, 3 hours before capsaicin 10 μg/ml): 7.0±0.9 wiping movements
Capsaicin-induced wiping movements after Palvanil ([1]; Palvanil 30 μg/ml, 1 hour before capsaicin 10 μg/ml): 6.7±0.7 wiping movements
Capsaicin-induced wiping movements after Palvanil ([1]; Palvanil 30 μg/ml, 3 hours before capsaicin 10 μg/ml): 6.0±0.8 wiping movements

COc1cc(CNC(=O)CCCC/C=C/C(C)C)ccc1O [capsaicin, reference compound]
Speed of TRPV1 activation (time to achieve 90% of total TRPV1 mediated calcium influx) ([3]; different concentrations, greatest difference at 1 μM, capsaicin vs Palvanil): always significantly faster
Desensitizing effect at different pre-incubation times, compared with Palvanil ([4]; 10 nM capsaicin pre-incubation, 10 nM capsaicin stimulation): significantly less pronounced desensitizing effect
Wiping movements monitored within 30 seconds ([2]; capsaicin solution 10 μg/ml into the eye): 12±0.9 wiping movements
